Patent publication EP0162545A2, “Enhanced bioconversion processes” (BETZ EUROPE, INC., priority 1984, dated 1985)

System: Klebsiella pneumoniae
Assay: microbe, parasite or virus in culture
Type: cell-based
Method: The first series of experiments involved the measurement of the amount of C02 evolved from aerobically growing cultures of the representative organism Klebsiella in the presence and absence of uncoupling agents. The known uncouplers 2, 4 dinitrophenol (DNP) and carbonyl cyanide m-chlorophenyl hydrazone (CCCP) were tested along with bis (tricholoromethyl) sulfone (TCMS) and beta-bromo-beta-nitrostyrene (BNS). It can be seen from the data that CCCP caused large increases in C02 evolution over the untreated controls at all concentrations used, with the largest increase (29%) at 5 µg/mL (24.4 uM). […] Bacterial counts also reflected the lack of uncoupling activity. […] Largest increase in C02 blowoff came at 50 ppm (32%). BNS gave a mixed pattern as opposed to those of DNP and CCCP. […] Even at 10 µg/mL, the bacterial count was reduced ~ 50% while still giving greater C02 blowoff than control cultures.
The procedure utilized to perform the first series of experiments was as follows: • Sealed vials containing 8 mL of minimal salts medium (Composition: K2HPO4-39, KH2PO4-lg, MgSO4-0.2g, (NN4)2SO4^-1g, D-glucose-5g (optional) in 1 liter. Autoclave and adjust pH to 6.8) lacking any carbon source were each injected with 1 mL of a suspension of Klebsiella pneumoniae. (Klebsiella was grown overnight, shaken at 37°C, in minimal salts medium containing glucose to a heavy cell suspension. The cells were centrifuged at 10,000 g and resuspended to a turbidity of 150 Klett units [Klett-Summerson photometer, #42 blue filter) in minimal salts medium [MSM], no glucose. These cells were again centrifuged, and resuspended in MSM at 1/10 the volume used previously. This 10X cell suspension was used as the standard inoculum for the vials.) The vials were- simultaneously injected with 1 mL of a 1 µ Ci/mL solution of ^14C-U-D glucose and the appropriate concentration of material to be tested. The compounds tested were fed at concentrations of […]. Controls received no test material and all vials were shaken during the course of the experiments at 37°C. Vials were read for C02 blowoff at the times indicated on the appropriate Tables. Standard bacterial counts were done on each vial after the end of each experimental series. [formula] [formula] [formula] [formula]

In the case of `O=[N+]([O-])C(Br)=Cc1ccccc1` [BNS, beta-bromo-beta-nitrostyrene], the “concentrations at which toxic properties become evident” value is reported as greater than 5000 ng/mL and the activation at 1 µg/mL (Klebsiella pneumoniae, 1.0 µ/mL, 14C-glucose, read-out: largest increase in C02 blowoff) is reported as 13%.
